Test results reported in ChEMBL document CHEMBL1153023, “Lathyrane diterpenes from Euphorbia lathyris as modulators of multidrug resistance and their crystal structures” (Bioorg Med Chem, 2009).

Assays:
MCF7/ADM = test: Reversal of p-gp-mediated multidrug-resistance in human MCF7/ADM cells assessed as enhancement intensity at 10 ug/mL after 48 hrs by SRB assay relative to adriamycin; type: cell-based
MCF7 = test: Cytotoxicity against human MCF7 cells after 48 hrs by SRB assay; type: cell-based; conditions: mcf7, 48 h
[1] = Octanol-water partition coefficient, log P of the compound; type: physicochemical
MCF/ADR = test: Reversal of P-gp-mediated multidrug resistance in human MCF/ADR cells assessed as reversal fold after 48 hrs by SRB assay relative to control; type: cell-based
[2] = Reversal of p-gp-mediated multidrug-resistance in human MCF7/ADM cells after 48 hrs by SRB assay; type: cell-based

| SMILES | Activity (MCF7/ADM) | Activity (MCF7) | logP [1] | Ratio IC50 (MCF/ADR) | IC50 [2] |
| --- | --- | --- | --- | --- | --- |
| CC(=O)O[C@@H]1[C@H]2[C@@H](OC(=O)Cc3ccccc3)[C@@H](C)C[C@]2(OC(C)=O)C(=O)/C(C)=C/[C@@H]2[C@H](CC[C@]13CO3)C2(C)C | 22% | Not Active | 5.6 | 4.4 | 246 µg/mL |
| C=C1[C@@H](OC(=O)c2ccccc2)C[C@H]2[C@@H](/C=C(\C)C(=O)[C@@]3(OC(C)=O)C[C@H](C)[C@H](OC(=O)c4ccccc4)[C@@H]3[C@H]1OC(C)=O)C2(C)C | 34% | Not Active | 7.9 | 12.8 | 84.3 µg/mL |
| C=C1CC[C@H]2[C@@H](/C=C(\C)C(=O)[C@@]3(OC(C)=O)C[C@H](C)[C@H](OC(=O)c4ccccc4)[C@@H]3[C@H]1OC(C)=O)C2(C)C | 25% |  | 6.4 | 6.57 | 165 µg/mL |
| COc1ccc(CCN(C)CCCC(C#N)(c2ccc(OC)c(OC)c2)C(C)C)cc1OC (configuration not stated) [VERAPAMIL] | 19% |  |  | 2.95 | 367 µg/mL |
| CC(=O)OC/C1=C\C[C@H]2[C@@H](/C=C(\C)C(=O)[C@@]3(OC(C)=O)C[C@H](C)[C@H](OC(=O)c4ccccc4)[C@@H]3[C@H]1OC(C)=O)C2(C)C (relative stereo) | 15% | Not Active | 6.1 | 4.36 | 248 µg/mL |
| CC(=O)OC/C1=C/[C@H]2[C@@H](OC(=O)/C=C/c3ccccc3)[C@@H](C)C[C@]2(OC(C)=O)C(=O)/C(C)=C/[C@@H]2[C@H](CC1)C2(C)C (relative stereo) | 54% | Not Active | 5.8 | 10.3 | 105 µg/mL |
